From patent US10889555B2, “Sulfonamide compound or salt thereof” (Taiho Pharmaceutical Co., Ltd., priority 2016, dated 2021)
Read-outs that look alike come from different tables or passages of the source.

Test system: HCC 1806 cells
Assay: Cell proliferation inhibitory effect on human breast cancer cell line (crystal violet, 72 hours)
Type: cell-based
Details: read-out: Cell growth suppression IC50
Method: Human derived breast cancer cell line HCC 1806 cells were daily passaged at a cell density not exceeding 80% in ATCC recommended Roswell Park Memorial Institute medium (RPMI-1640) containing 10% fetal bovine serum (FBS). In order to start the test of cell proliferation inhibitory activity, HCC 1806 cells were suspended in the above medium, after seeing at 180 μL in each well of a 96-well flat bottom plate so that the number of cells per well was 2,000, the cells were cultured at 37° C. for 1 day in an incubator containing 5% carbon dioxide gas. On the next day, the test compound was dissolved in DMSO, and 20 μL of a drug additive solution diluted serially with distilled water to 10 times of the final concentration was added to each well of the culture plate of the cells, and the cells were cultured at 37° C. for 72 hours in an incubator containing 5% carbon dioxide gas. After culturing for 72 hours, 20 μL of glutaraldehyde was added to each well and allowed to stand for 30 minutes, then the plate was washed 10 times with water and was dried. 100 μL of a stain solution (0.05% crystal violet in a 20% methanol solution) was added to each well and allowed to stand for 30 minutes, then the plate was washed 10 times with water and was dried. 100 μL of an extract solution (0.1 N NaH2PO4: 100% ethanol=1:1) was added to each well and mixed, and the mixture was measured at a wavelength of 540 nm using a plate reader (MTP-450 manufactured by Corona Electric Co., Ltd.). The growth inhibition rate was calculated from the following formula, and the concentration (IC50 (μM)) of a test compound inhibiting 50% was determined. Growth inhibition rate (%)={(C−B)−(T−B)}/(C−B)×100
T: Absorbance of well to which test compound was added
C: Absorbance of wells to which no test compound was added
B: Absorbance of wells to which no cell suspension was added

SMILES | IC50 (Homo sapiens, HCC1806, 72 h) | IC50
Cc1cc(F)c(F)c([C@@H](C)[C@H](NS(=O)(=O)c2ccc(Cl)cc2C(N)=O)c2n[nH]c(=O)o2)c1C [Example 13, 5-chloro-2-(N-((1S,2R)-2-(2,3-difluoro-5,6-dimethylphenyl)-1-(5-oxo-4,5-dihydro-1,3,4-oxadiazol-2-yl)propyl)sulfamoyl)benzamide] | 310 nM | –
Cc1ccc(F)c([C@@H](C)[C@H](NS(=O)(=O)c2ccc(Cl)c3c2OCCN3C)c2n[nH]c(=O)o2)c1C [Example 288, 5-chloro-N-((1S,2R)-2-(6-fluoro-2,3-dimethylphenyl)-1-(5-oxo-4,5-dihydro-1,3,4-oxadiazol-2-yl)propyl)-4-methyl-3,4-dihydro-2H-benzo[b][1,4]oxazine-8-sulfonamide] | 150 nM | –
Cc1ccc(F)c([C@@H](C)[C@H](NS(=O)(=O)c2cc(F)c(Cl)cc2C(N)=O)c2n[nH]c(=O)o2)c1C [Example 255, 5-chloro-4-fluoro-2-(N-((1S,2R)-2-(6-fluoro-2,3-dimethylphenyl)-1-(5-oxo-4,5-dihydro-1,3,4-oxadiazol-2-yl)propyl)sulfamoyl)benzamide] | 480 nM | –
[2H]C([2H])([2H])C1(O)CCOc2c(S(=O)(=O)N[C@H](c3n[nH]c(=O)o3)[C@H](C)c3c(F)ccc(Br)c3C)ccc(Cl)c21 (single isomer, unassigned) [Example 226A] | – | 80 nM
CC(=O)OC1(C)CCOc2c(S(=O)(=O)N[C@H](c3n[nH]c(=O)o3)[C@H](C)c3c(F)ccc(C)c3C)ccc(Cl)c21 (stereo partly drawn) [Example 95, 5-chloro-8-(N-((1S,2R)-2-(6-fluoro-2,3-dimethylphenyl)-1-(5-oxo-4,5-dihydro-1,3,4-oxadiazol-2-yl)propyl)sulfamoyl)-4-methylchroman-4-yl acetate] | 140 nM | –
Cc1ccc(F)c([C@@H](C)[C@H](NS(=O)(=O)c2cc(C(C)(C)O)ccc2C(N)=O)c2n[nH]c(=O)o2)c1C [Example 197, 2-(N-((1S,2R)-2-(6-fluoro-2,3-dimethylphenyl)-1-(5-oxo-4,5-dihydro-1,3,4-oxadiazol-2-yl)propyl)sulfamoyl)-4-(2-hydroxypropan-2-yl)benzamide] | 410 nM | –
CCn1cc(-c2ccc(F)c([C@@H](C)[C@H](NS(=O)(=O)c3ccc(Cl)cc3OC)c3n[nH]c(=O)o3)c2C)cn1 [Example 310, 4-chloro-N-((1S,2R)-2-(3-(1-ethyl-1H-pyrazol-4-yl)-6-fluoro-2-methylphenyl)-1-(5-oxo-4,5-dihydro-1,3,4-oxadiazol-2-yl)propyl)-2-methoxybenzenesulfonamide] | 350 nM | –
COc1c(S(=O)(=O)N[C@H](c2n[nH]c(=O)o2)[C@H](C)c2cccc(C)c2C)ccc(Cl)c1C(C)O (stereo partly drawn) [Example 203, 4-chloro-N-((1S,2R)-2-(2,3-dimethylphenyl)-1-(5-oxo-4,5-dihydro-1,3,4-oxadiazol-2-yl)propyl)-3-(1-hydroxyethyl)-2-methoxybenzenesulfonamide] | 810 nM | –
[2H]C([2H])([2H])[C@H](c1c(F)ccc(C)c1C)[C@H](NS(=O)(=O)c1ccc(Cl)cc1C(N)=O)c1n[nH]c(=O)o1 [Example 43, 5-chloro-2-[[(1S,2R)-3,3,3-trideuterio-2-(6-fluoro-2,3-dimethylphenyl)-1-(2-oxo-3H-1,3,4-oxadiazol-5-yl)propyl]sulfamoyl]benzamide] | 280 nM | –
[2H]C([2H])([2H])C1(O)CCOc2c(S(=O)(=O)N[C@H](c3n[nH]c(=O)o3)[C@H](C)c3c(F)ccc(C)c3C)ccc(Cl)c21 (single isomer, unassigned) [Example 200B] | – | 460 nM
Cc1ccc(F)c([C@@H](C)[C@H](NS(=O)(=O)c2ccc(Cl)c3c2OCCC3(C)O)c2n[nH]c(=O)o2)c1C (single isomer, unassigned) [Example 207B] | – | 250 nM
CC(=O)OC1(C(F)(F)F)CCOc2c(S(=O)(=O)N[C@H](c3n[nH]c(=O)o3)[C@H](C)c3c(F)ccc(C)c3C)ccc(Cl)c21 (stereo partly drawn) [Example 123, 5-chloro-8-(N-((1S,2R)-2-(6-fluoro-2,3-dimethylphenyl)-1-(5-oxo-4,5-dihydro-1,3,4-oxadiazol-2-yl)propyl)sulfamoyl)-4-(trifluoromethyl)chroman-4-yl acetate] | 170 nM | –
CC(=O)OC1(C)CCOc2c(S(=O)(=O)N[C@H](c3n[nH]c(=O)o3)[C@H](C)c3c(F)ccc(Cl)c3C)ccc(Cl)c21 (stereo partly drawn) [Example 100, 5-chloro-8-(N-((1S,2R)-2-(3-chloro-6-fluoro-2-methylphenyl)-1-(5-oxo-4,5-dihydro-1,3,4-oxadiazol-2-yl)propyl)sulfamoyl)-4-methylchroman-4-yl acetate] | 390 nM | –
Cc1ccc(F)c([C@@H](C)[C@H](NS(=O)(=O)c2ccc(F)c3c2OCCC3O)c2n[nH]c(=O)o2)c1C (stereo partly drawn) [Example 241, 5-fluoro-N-((1S,2R)-2-(6-fluoro-2,3-dimethylphenyl)-1-(5-oxo-4,5-dihydro-1,3,4-oxadiazol-2-yl)propyl)-4-hydroxychroman-8-sulfonamide] | 490 nM | –
COc1c(S(=O)(=O)N[C@H](c2n[nH]c(=O)o2)[C@H](C)c2c(F)ccc(C)c2C)ccc(Cl)c1C(C)O (stereo partly drawn) [Example 204, 4-chloro-N-((1S,2R)-2-(6-fluoro-2,3-dimethylphenyl)-1-(5-oxo-4,5-dihydro-1,3,4-oxadiazol-2-yl)propyl)-3-(1-hydroxyethyl)-2-methoxybenzenesulfonamide] | 150 nM | –
Cc1ccc(F)c([C@@H](C)[C@H](NS(=O)(=O)c2ncc(Br)cc2C(N)=O)c2n[nH]c(=O)o2)c1C [Example 250, 5-bromo-2-(N-((1S,2R)-2-(6-fluoro-2,3-dimethylphenyl)-1-(5-oxo-4,5-dihydro-1,3,4-oxadiazol-2-yl)propyl)sulfamoyl)nicotinamide] | 120 nM | –
Cc1cccc2cccc([C@@H](C)[C@H](NS(=O)(=O)c3ccc(Cl)c4c3OCCC4O)c3n[nH]c(=O)o3)c12 (stereo partly drawn) [Example 232, 5-chloro-4-hydroxy-N-((1S,2R)-2-(8-methylnaphthalene-1-yl)-1-(5-oxo-4,5-dihydro-1,3,4-oxadiazol-2-yl)propyl)chroman-8-sulfonamide] | 330 nM | –
Cc1ccc(F)c([C@@H](C)[C@H](NS(=O)(=O)c2ccc(Cl)c3c2OCCC3(C)O)c2n[nH]c(=O)o2)c1C (single isomer, unassigned) [Example 207A] | – | 70 nM
COc1cc(Cl)ccc1S(=O)(=O)N[C@H](c1n[nH]c(=O)o1)[C@H](C)c1c(F)ccc(C)c1C [Example 83, 4-chloro-N-((1S,2R)-2-(6-fluoro-2,3-dimethylphenyl)-1-(5-oxo-4,5-dihydro-1,3,4-oxadiazol-2-yl)propyl)-2-methoxybenzenesulfonamide] | 500 nM | –
COc1c(S(=O)(=O)N[C@H](c2n[nH]c(=O)o2)[C@H](C)c2c(F)ccc(C)c2C)ccc(Cl)c1C(C)O (single isomer, unassigned) [Example 208A] | – | 330 nM
Cc1ccc(F)c([C@@H](C)[C@H](NS(=O)(=O)c2ccc(Cl)c3c2OCC(=O)N3CC(F)F)c2n[nH]c(=O)o2)c1C [Example 101, 5-chloro-4-(2,2-difluoroethyl)-N-((1S,2R)-2-(6-fluoro-2,3-dimethylphenyl)-1-(5-oxo-4,5-dihydro-1,3,4-oxadiazol-2-yl)propyl)-3-oxo-3,4-dihydro-2H-benzo[b][1,4]oxazine-8-sulfonamide] | 810 nM | –
C[C@H](c1c(F)ccc2ccccc12)[C@H](NS(=O)(=O)c1ccc(Cl)c2c1OCCC2O)c1n[nH]c(=O)o1 (single isomer, unassigned) [Example 234A] | 570 nM | –
Cc1ccc(F)c([C@@H](C)[C@H](NS(=O)(=O)c2ccc(Cl)c3c2OCCN3)c2n[nH]c(=O)o2)c1C [Example 275, 5-chloro-N-((1S,2R)-2-(6-fluoro-2,3-dimethylphenyl)-1-(5-oxo-4,5-dihydro-1,3,4-oxadiazol-2-yl)propyl)-3,4-dihydro-2H-benzo[b][1,4]oxazine-8-sulfonamide] | 370 nM | –
COc1c(S(=O)(=O)N[C@H](c2n[nH]c(=O)o2)[C@H](C)c2c(F)ccc(C)c2C)ccc(Cl)c1C(C)(C)O [Example 212, 4-chloro-N-((1S,2R)-2-(6-fluoro-2,3-dimethylphenyl)-1-(5-oxo-4,5-dihydro-1,3,4-oxadiazol-2-yl)propyl)-3-(2-hydroxypropan-2-yl)-2-methoxybenzenesulfonamide] | 260 nM | –
CC(=O)c1cc(Cl)ccc1S(=O)(=O)N[C@H](c1n[nH]c(=O)o1)[C@H](C)c1c(F)ccc(C)c1C [Example 147, 2-acetyl-4-chloro-N-((1S,2R)-2-(6-fluoro-2,3-dimethylphenyl)-1-(5 oxo-4,5-dihydro-1,3,4-oxadiazol-2-yl)propyl)benzenesulfonamide] | 650 nM | –
Cc1ccc(F)c([C@@H](C)[C@H](NS(=O)(=O)c2c(F)cc(Cl)cc2C(N)=O)c2n[nH]c(=O)o2)c1C [Example 258, 5-chloro-3-fluoro-2-(N-((1S,2R)-2-(6-fluoro-2,3-dimethylphenyl)-1-(5-oxo-4,5-dihydro-1,3,4-oxadiazol-2-yl)propyl)sulfamoyl)benzamide] | 580 nM | –
